In the supplement of paper PMC10307832:

Tests used:
Assay in all cases: relative viability (nuclei count vs DMSO), 5 days (fraction); higher = more cells survive
ABC-1 = tested on: ABC-1
Method in brief: (§1)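 Five library-drug doses in √10 steps were combined with a fixed anchor-drug dose, or a single drug was given alone, by pin tool to lung cancer cell lines in 1536-well plates the day after seeding. Nuclei were stained and counted after 5 days. Relative viability is the nuclei count in treated wells over that in vehicle wells, taken as the median of duplicate plates.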

NCI-H1650 = tested on: NCI-H1650
Method in brief: as §1

NCI-H661 = tested on: NCI-H661
Method in brief: as §1

LU99A = tested on: LU99A
Method in brief: as §1

PC-14 = tested on: PC-14
Method in brief: as §1

COR-L23 = tested on: COR-L23
Method in brief: as §1

NCI-H727 = tested on: NCI-H727
Method in brief: as §1

NCI-H1437 = tested on: NCI-H1437
Method in brief: as §1

NCI-H1666 = tested on: NCI-H1666
Method in brief: as §1

COR-L 105 = tested on: COR-L 105
Method in brief: as §1

NCI-H838 = tested on: NCI-H838
Method in brief: as §1

CAL-12T = tested on: CAL-12T
Method in brief: as §1

NCI-H2009 = tested on: NCI-H2009
Method in brief: as §1

HCC-366 = tested on: HCC-366
Method in brief: as §1

HARA = tested on: HARA
Method in brief: as §1

201T = tested on: 201T
Method in brief: as §1

EKVX = tested on: EKVX
Method in brief: as §1

NCI-H441 = tested on: NCI-H441
Method in brief: as §1

BEN = tested on: BEN
Method in brief: as §1

NCI-H3122 = tested on: NCI-H3122
Method in brief: as §1

## Oc1nc(-c2ccc(C(F)(F)F)cc2)nc2c1CSCC2 [XAV939] + CC(C)C[C@H](NC(=O)[C@H](Cc1ccccc1)NC(=O)c1cnccn1)B(O)O [Bortezomib] (partner 0.002 µM)
ABC-1; first compound 0.08 µM
  relative viability: 0.315
ABC-1; first compound 0.253 µM
  relative viability: 0.307
ABC-1; first compound 0.8 µM
  relative viability: 0.254
ABC-1; first compound 2.53 µM
  relative viability: 0.252
NCI-H1650; first compound 0.08 µM
  relative viability: 0.178
NCI-H1650; first compound 0.253 µM
  relative viability: 0.211
NCI-H1650; first compound 0.8 µM
  relative viability: 0.222
NCI-H1650; first compound 2.53 µM
  relative viability: 0.215
NCI-H661; first compound 0.08 µM
  relative viability: 0.866
NCI-H661; first compound 0.253 µM
  relative viability: 0.707
NCI-H661; first compound 0.8 µM
  relative viability: 0.95
NCI-H661; first compound 2.53 µM
  relative viability: 0.495
LU99A; first compound 0.08 µM
  relative viability: 1.26
LU99A; first compound 0.253 µM
  relative viability: 0.714
LU99A; first compound 0.8 µM
  relative viability: 1.01
LU99A; first compound 2.53 µM
  relative viability: 1.19
PC-14; first compound 0.08 µM
  relative viability: 0.825
PC-14; first compound 0.253 µM
  relative viability: 0.808
PC-14; first compound 0.8 µM
  relative viability: 0.846
PC-14; first compound 2.53 µM
  relative viability: 0.794
COR-L23; first compound 0.08 µM
  relative viability: 1.03
COR-L23; first compound 0.253 µM
  relative viability: 0.994
COR-L23; first compound 0.8 µM
  relative viability: 1.05
COR-L23; first compound 2.53 µM
  relative viability: 0.855
NCI-H727; first compound 0.08 µM
  relative viability: 1.05
NCI-H727; first compound 0.253 µM
  relative viability: 0.589
NCI-H727; first compound 0.8 µM
  relative viability: 0.803
NCI-H727; first compound 2.53 µM
  relative viability: 0.957
NCI-H1437; first compound 0.08 µM
  relative viability: 0.641
NCI-H1437; first compound 0.253 µM
  relative viability: 0.548
NCI-H1437; first compound 0.8 µM
  relative viability: 0.512
NCI-H1437; first compound 2.53 µM
  relative viability: 0.376
NCI-H1666; first compound 0.08 µM
  relative viability: 0.813
NCI-H1666; first compound 0.253 µM
  relative viability: 0.611
NCI-H1666; first compound 0.8 µM
  relative viability: 0.422
NCI-H1666; first compound 2.53 µM
  relative viability: 0.5
COR-L 105; first compound 0.08 µM
  relative viability: 0.853
COR-L 105; first compound 0.253 µM
  relative viability: 0.755
COR-L 105; first compound 0.8 µM
  relative viability: 0.618
COR-L 105; first compound 2.53 µM
  relative viability: 0.567
NCI-H838; first compound 0.08 µM
  relative viability: 0.852
NCI-H838; first compound 0.253 µM
  relative viability: 0.683
NCI-H838; first compound 0.8 µM
  relative viability: 0.893
NCI-H838; first compound 2.53 µM
  relative viability: 0.527
CAL-12T; first compound 0.08 µM
  relative viability: 0.981
CAL-12T; first compound 0.253 µM
  relative viability: 0.856
CAL-12T; first compound 0.8 µM
  relative viability: 0.89
CAL-12T; first compound 2.53 µM
  relative viability: 0.977
NCI-H2009; first compound 0.08 µM
  relative viability: 1.17
NCI-H2009; first compound 0.253 µM
  relative viability: 0.901
NCI-H2009; first compound 0.8 µM
  relative viability: 0.936
NCI-H2009; first compound 2.53 µM
  relative viability: 0.915
HCC-366; first compound 0.08 µM
  relative viability: 1.12
HCC-366; first compound 0.253 µM
  relative viability: 0.991
HCC-366; first compound 0.8 µM
  relative viability: 1.01
HCC-366; first compound 2.53 µM
  relative viability: 1.05
HARA; first compound 0.08 µM
  relative viability: 1.35
HARA; first compound 0.253 µM
  relative viability: 1
HARA; first compound 0.8 µM
  relative viability: 1.12
HARA; first compound 2.53 µM
  relative viability: 1
201T; first compound 0.08 µM
  relative viability: 1.12
201T; first compound 0.253 µM
  relative viability: 0.981
201T; first compound 0.8 µM
  relative viability: 1.08
201T; first compound 2.53 µM
  relative viability: 0.979
EKVX; first compound 0.08 µM
  relative viability: 1.12
EKVX; first compound 0.253 µM
  relative viability: 0.882
EKVX; first compound 0.8 µM
  relative viability: 0.773
EKVX; first compound 2.53 µM
  relative viability: 0.573
NCI-H441; first compound 0.08 µM
  relative viability: 0.45
NCI-H441; first compound 0.253 µM
  relative viability: 0.401
NCI-H441; first compound 0.8 µM
  relative viability: 0.572
NCI-H441; first compound 2.53 µM
  relative viability: 0.681
BEN; first compound 0.08 µM
  relative viability: 0.709
BEN; first compound 0.253 µM
  relative viability: 0.733
BEN; first compound 0.8 µM
  relative viability: 0.559
NCI-H3122; first compound 0.08 µM
  relative viability: 1.09
NCI-H3122; first compound 0.253 µM
  relative viability: 1.01
NCI-H3122; first compound 0.8 µM
  relative viability: 1.03
NCI-H3122; first compound 2.53 µM
  relative viability: 0.944
